Measurements published in US20250122295A1, “METHOD OF TREATMENT OF PHILADELPHIA CHROMOSOME POSITIVE LEUKEMIA” (CSL LIMITED, priority 2014, published 2025).

System: GM-CSF-induced STAT5 phosphorylation in KU812 cells
Conditions: dasatinib alone 100 nM, GM-CSF 4 ng/ml for 10 minutes, FIG. 6
Protocol: KU812 cells (a myeloid precursor cell line established from the peripheral blood of a patient in blast crisis of CML) were cultured with 100 nM dasatinib with or without Bion-1 (100 nM) and constitutively stimulated with GM-CSF (4 ng/ml) for 10 minutes.

Cc1nc(Nc2ncc(C(=O)Nc3c(C)cccc3Cl)s2)cc(N2CCN(CCO)CC2)n1 [dasatinib]
inhibition of p-STAT5 phosphorylation in the presence of GM-CSF: does not inhibit
